# Laboratory results reported in ChEMBL document CHEMBL5726394, “Therapeutic compounds and compositions” (2019).
# pIC50: −log10 of the molar value.
# Target: Isocitrate dehydrogenase [NADP], mitochondrial (Homo sapiens, UniProt P48735, R140Q)
# Test: IDH2 Enzymatic Assay: Compounds were assayed for IDH2 R140Q inhibitory activity through a cofactor depletion assay. […] The reaction was terminated by the addition of a second enzyme, diaphorase, and a corresponding substrate, resazurin. Diaphorase reduces resazurin to the highly fluorescent resorufin with the concomitant oxidation of NADPH to NADP, both halting the IDH2 reaction by depleting the available cofactor pool and facilitating quantitation of the amount of cofactor remaining after a specific time period through quantitative production of an easily detected fluorophore.Specifically, into each of 12 wells of a 384-well plate, 1 μl of compound dilution series was placed, followed by the addition of 40 μl of buffer (50 mM potassium phosphate, pH 7.5; 150 mM NaCl; 10 mM MgCl2, 10% glycerol, 0.05% bovine serum albumin, 2 mM beta-mercaptoethanol) containing 1.25 μg/ml IDH2 R140Q. The compound was then incubated for one hour at room temperature with the enzyme; before starting the IDH2 reaction with the addition of 10 μl of substrate mix containing 50 μM NADPH and 6.3 mM α-KG in the buffer described above. After a further one hour of incubation at room temperature, the reaction was halted and the remaining NADPH measured through conversion of resazurin to resorufin by the addition of 25 μl Stop Mix (36 μg/ml diaphorase enzyme and 60 μM resazurin; in buffer). […]
# Isocitrate dehydrogenase [NADP], mitochondrial, sequence (P48735 40-452 R140Q limits assumed): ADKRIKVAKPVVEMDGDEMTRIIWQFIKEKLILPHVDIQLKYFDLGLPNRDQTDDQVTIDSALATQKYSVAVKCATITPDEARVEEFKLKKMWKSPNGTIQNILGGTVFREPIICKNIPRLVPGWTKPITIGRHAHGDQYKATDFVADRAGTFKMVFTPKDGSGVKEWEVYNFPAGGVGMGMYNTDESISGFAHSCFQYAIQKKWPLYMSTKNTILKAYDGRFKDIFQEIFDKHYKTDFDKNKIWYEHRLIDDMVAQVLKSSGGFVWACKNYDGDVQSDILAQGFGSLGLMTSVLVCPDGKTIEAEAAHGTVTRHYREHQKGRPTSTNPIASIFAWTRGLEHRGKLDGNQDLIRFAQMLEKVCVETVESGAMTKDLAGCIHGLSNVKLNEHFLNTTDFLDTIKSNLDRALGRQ
row,pIC50,SMILES
1,6.00 to 7.00,O=C(Nc1cccc(C(F)(F)F)c1)Nc1cc(S(=O)(=O)Nc2ccccc2)ccc1-c1cccs1
2,> 7.00,CCSc1ccc(S(=O)(=O)NCC(F)(F)F)cc1NC(=O)Nc1cccc(C(F)(F)F)c1
